Source: patent publication US8377944B2, “Thienopyrimidine derivatives” (ASKA Pharmaceutical Co., Ltd., priority 2005, dated 2013)
pIC50: −log10 of the molar value.

Experiments:
[1] = biological target: T1, human recombinant PDE9 protein (Homo sapiens, UniProt O76083); test: Measurement of PDE9-inhibiting activity; format: biochemical; conditions: human recombinant PDE9, [3H]-cGMP substrate; read-out: Inhibitory Activity (IC50 value) PDE 9
T1 construct: made in house; host or cells: COS-1 cells, transient transfection of pcDNA 3.1(+); supernatant of the cell homogenate
Source text: (1) Measurement of PDE9-Inhibiting Activity:
1) Preparation of Human Recombinant PDE9 Protein
Based on the base sequence of hsPDE9A1 registered with GenBank database (accession No.: AF048837), hsPDE9A1 fragment was amplified by polymerase chain reaction under the following conditions, using the following sequence (Amasham Pharmacia Biotech) as the primer and Human Prostate […] cDNA library (CLONTECH) as the template DNA, with Pfu Turbo DNA polymerase ([…]):
hPDE9-5A primer: […] [SEQ ID NO: 1]
hPDE9-3A primer: […] [SEQ ID NO: 2]
PCR condition: [95° C., 5 min]×1 cycle, [(95° C., 1 min), (58° C., 2 min), (72° C., 3 min)]×25 cycle, [72° C., 10 min]×1 cycle
Thus obtained hsPDE9A1 fragment was given a restricted enzymatic treatment with NheI and NotI, and thereafter inserted into pcDNA 3.1(+) expression vector (Invitrogen) to let it serve as a human PDE9 expression vector.
Human PDE9 expression vector-transformed Escherichia coli was mass incubated to produce a large amount of PDE9 expression vector, which was transiently transfected into COS-1 cells, with LIPOFECTAMINE 2000 Reagent (GIBCO). […]
To 150 μL of buffer B (70 mmol/L Tris-HCl, pH7.5; 16.7 mmol/L MgCl2, 33.3 nmol/L [^3H]-cGMP) solution containing [^3H]-cGMP (specific activity=244.2 GBq/mmol) at a concentration of 33.3 nmol/L, 50 μL of a solution of the compound to be evaluated (formed by dissolving the compound in DMSO and diluting it with distilled water to DMSO concentration of 5%) and 50 μL of the PDE9 protein solution as prepared in the above, as diluted with buffer C (40 mmol/L Tris-HCl, pH7.5, 15 mmol/L benzamidine, 15 mmol/L 2-mercaptoethanol, 1 μg/mL Pepstatin A, 1 μg/mL Leupeptin) by 1,500×, were added under cooling with ice. […] Thereafter [^3H]-guanosine was eluted with 3 mL of 3 mol/L aqueous ammonia and its radiation activity was measured with liquid scintillation counter.
PDE9 inhibition of the tested compound can be calculated by the following formula: […]
From the inhibition ratios at various concentration levels of each tested compound, its IC50 value against PDE9 was determined.

[2] = biological target: T2, human recombinant PDE5 protein (Homo sapiens, UniProt O76074); test: Measurement of PDE5-inhibiting activity; format: biochemical; conditions: human recombinant PDE5, [3H]-cGMP substrate; read-out: Inhibitory Activity (IC50 value) PDE 5
T2 construct: made in house; host or cells: COS-1 cells, transient transfection of pcDNA 3.1(+); supernatant of the cell homogenate
Source text: (2) Measurement of PDE5-Inhibiting Activity:
1) Preparation of Human Recombinant PDE5 Protein
Based on the base sequence of hsPDE5A1 registered with GenBank database (accession No.: NM_001083), hsPDE5A1 fragment was amplified by polymerase chain reaction under the following conditions, using the following sequence (SIGMA GENOSYS) as the primer and Human Prostate […] cDNA library (CLONTECH) as the template DNA, with KDD plus DNA polymerase (TOYOBO): […]
hPDE5-5′E primer: […] [SEQ ID NO: 3] […]
hPDE5-3′ primer: […] [SEQ ID NO: 4]
PCR condition: [94° C., 2 min]×1 cycle, [(94° C., 30 sec), (65° C., 30 sec), (68° C., 3 min)]×25 cycle, [68° C., 6 min]×1 cycle Thus obtained hsPDE5A1 fragment was given a restricted enzymatic treatment with XBaI and EcoRI, and thereafter inserted into pcDNA 3.1(+) expression vector (Invitrogen) to let it serve as a human PDE5 expression vector.
Human PDE5 expression vector-transformed Escherichia coli was mass incubated to produce a large amount of PDE5 expression vector, which was transiently transfected into COS-1 cells, with LIPOFECTAMINE 2000 Reagent (GIBCO). The cells were homogenized in ice-cooled buffer A and centrifuged at 4° C., 14,000×g for 10 minutes. The supernatant was isolated to provide human recombinant PDE5 protein solution.
2) Measurement of PDE5-Inhibiting Activity
By a method similar to the measurement of PDE9-inhibiting activity, PDE5-inhibiting activity of the test compounds was measured, their inhibition was calculated and IC50 value to PDE5 of each of the compounds was determined. The results are shown in the following Table A, concurrently with the compounds' IC50 values against PDE9.

[3] = system: model of urethral obstruction with the guinea pigs; test: Dysuria pathological model (urethral obstruction), cystometry; format: in vivo, guinea pig; conditions: for Frequency of non-voiding contraction, pre-administration / Residual urine volume, pre-administration: baseline before administration; for Frequency of non-voiding contraction, pre-administration / Frequency of non-voiding contraction, post-administration / Residual urine volume, post-administration / Residual urine volume, pre-administration: mean; for Frequency of non-voiding contraction, post-administration / Residual urine volume, post-administration: up to 30 min after administration; for Frequency of non-voiding contraction, quantitative change / Residual urine volume, quantitative change: post minus pre
Procedure: (3) Investigation of PDE9 Inhibitory Activity on Dysuria Pathological Model
Three to four weeks old female Hartley strain guinea pigs (Nippon SLC) were laparotomized under anesthesia with pentobarbital (30 mg/kg i.p.), and a polyethylene tube of 1.4 mm in width and 2.0 mm in inner diameter was placed in each guinea pig's urethra to the distal side by 1-2 mm from the bladder neck. After closing the incision, the guinea pigs were reared for at least 3 weeks to provide a model of urethral obstruction with the guinea pigs in which rise in intravesical pressure not accompanied by voiding (non-voiding contraction) and residual urine were induced.
The model was catheterized under anesthesia with urethane (1 g/kg i.p.) at the apex of urinary bladder and right jugular vein for cystometrography and intravenous administration, respectively. The other end of the bladder catheter was connected to a pressure transducer and infusion pump through three way stopcock. By means of the infusion pump, physiological saline was continuously infused into the bladder at a rate of 0.4 mL/min to induce micturition reflex. Immediately after the micturition reflex was induced, the physiological saline infusion into the bladder was stopped. The intravesical pressure at the time the micturition occurred was measured with the pressure transducer and the cystometrogram was recorded with pen recorder. The urine voided was collected with a disposable type weighing dish to measure its weight. Further the physiological saline remained in the bladder was sucked with syringe through the bladder catheter to measure the residual urine volume. Multiple operation cycles (normally 4 times) of suspending physiological saline infusion when micturition reflex was induced and resuming the infusion after about 1 minute to induce next micturition reflex, were repeated to stabilize the voiding response.
Also the frequency of non-voiding contraction occurred during the operations was measured. The respective mean values of frequency of non-voiding contraction and residual urine volume in the experiment using several guinea pigs are shown in the following Table B.

T1 sequence (O76083 whole entry): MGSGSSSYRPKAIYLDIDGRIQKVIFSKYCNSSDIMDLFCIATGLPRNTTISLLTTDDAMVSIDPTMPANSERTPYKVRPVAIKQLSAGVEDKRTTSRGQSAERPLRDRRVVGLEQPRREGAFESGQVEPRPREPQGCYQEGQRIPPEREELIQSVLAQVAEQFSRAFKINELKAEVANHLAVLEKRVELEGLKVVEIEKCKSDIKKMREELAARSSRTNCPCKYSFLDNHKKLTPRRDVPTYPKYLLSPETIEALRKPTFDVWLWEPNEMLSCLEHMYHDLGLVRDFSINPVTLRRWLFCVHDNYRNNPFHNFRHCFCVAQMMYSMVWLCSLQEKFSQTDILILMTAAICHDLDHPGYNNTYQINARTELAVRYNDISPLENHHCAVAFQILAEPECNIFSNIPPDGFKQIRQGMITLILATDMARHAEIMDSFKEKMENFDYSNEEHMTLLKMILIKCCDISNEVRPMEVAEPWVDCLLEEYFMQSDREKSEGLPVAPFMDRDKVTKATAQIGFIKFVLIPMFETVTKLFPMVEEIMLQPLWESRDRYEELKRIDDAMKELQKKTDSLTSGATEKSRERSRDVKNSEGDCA

| Molecule | Frequency of non-voiding contraction, pre-administration ([3]; 0.3 mg/kg i.v.) [count/min] | Frequency of non-voiding contraction, post-administration ([3]; 0.3 mg/kg i.v.) [count/min] | Frequency of non-voiding contraction, pre-administration ([3]; 3 mg/kg i.v.) [count/min] | Residual urine volume, pre-administration ([3]; 3 mg/kg i.v.) [mL] | Frequency of non-voiding contraction, post-administration ([3]; 3 mg/kg i.v.) [count/min] | Frequency of non-voiding contraction, pre-administration ([3]; 10 mg/kg i.v.) [count/min] | Residual urine volume, pre-administration ([3]; 10 mg/kg i.v.) [mL] | Frequency of non-voiding contraction, post-administration ([3]; 10 mg/kg i.v.) [count/min] | Residual urine volume, post-administration ([3]; 10 mg/kg i.v.) [mL] | also measured |
| --- | --- | --- | --- | --- | --- | --- | --- | --- | --- | --- |
| Cc1c(C(=O)O)sc2nc(Cc3ccc(F)c(Cl)c3)[nH]c(=O)c12 [Example 52, 2-(3-Chloro-4-fluorobenzyl)-5-methyl-4-oxo-3,4-dihydrothieno[2,3-d]pyrimidine-6-carboxylic acid] |  |  |  |  |  |  |  |  |  | pIC50 [1]: 7.42; pIC50 [2]: 5.47 |
| 2-(Cyclopent-1-enylmethyl)-5-methyl-4-thioxo-3,4-dihydrothieno[2,3-d]pyrimidine-6-carboxylic acid and 2-cyclopentylidenemethyl-5-methyl-4-thioxo-3,4-dihydrothieno-[2,3-d]pyrimidine-6-carboxylic acid [Example 117] |  |  |  |  |  |  |  |  |  | pIC50 [1]: 7.62; pIC50 [2]: 6.07 |
| Cc1c(C(=O)O)sc2nc(Cc3cccc(Cl)c3)[nH]c(=S)c12 [Example 112, 2-(3-Chlorobenzyl)-5-methyl-4-thioxo-3,4-dihydrothieno-[2,3-d]pyrimidine-6-carboxylic acid] | 1.12 | 1.02 | 1.12 | 1.02 | 0.76 | 1.12 | 1.02 | 0.59 | 0.48 | Residual urine volume, post-administration ([3]; 0.3 mg/kg i.v.): 0.91 mL; Residual urine volume, post-administration ([3]; 3 mg/kg i.v.): 0.27 mL |
| Cc1c(C(=O)O)sc2nc(Cc3cccc(Cl)c3)[nH]c(=O)c12 [Example 10, 2-(3-Chlorobenzyl)-5-methyl-4-oxo-3,4-dihydrothieno-[2,3-d]pyrimidine-6-carboxylic acid] | 1.16 | 0.80 | 1.16 | 0.95 | 0.49 | 1.16 |  | 0.60 | 0.95 | Residual urine volume, pre-administration ([3]; 0.3 mg/kg i.v.): 0.95 mL |
| O=C(O)c1cc2c(=O)[nH]c(Cc3cccc(Cl)c3)nc2s1 [Example 104, 2-(3-Chlorobenzyl)-4-oxo-3,4-dihydrothieno[2,3-d]pyrimidine-6-carboxylic acid] | 1.08 | 0.55 | 1.44 | 1.37 | 0.78 | 1.57 | 1.68 | 0.83 | 0.62 | Residual urine volume, pre-administration ([3]; 0.3 mg/kg i.v.): 1.54 mL; Frequency of non-voiding contraction, quantitative change ([3]; 0.3 mg/kg i.v.): −0.53 count/min; Residual urine volume, quantitative change ([3]; 0.3 mg/kg i.v.): -0.52 mL; Residual urine volume, post-administration ([3]; 0.3 mg/kg i.v.): 1.02 mL; Frequency of non-voiding contraction, quantitative change ([3]; 3 mg/kg i.v.): −0.66 count/min; Residual urine volume, quantitative change ([3]; 3 mg/kg i.v.): -0.49 mL; Residual urine volume, post-administration ([3]; 3 mg/kg i.v.): 0.88 mL; Frequency of non-voiding contraction, quantitative change ([3]; 10 mg/kg i.v.): −0.74 count/min; Residual urine volume, quantitative change ([3]; 10 mg/kg i.v.): -1.06 mL |
| Cc1c(C(=O)O)sc2nc(Cc3ccc(Cl)c(Cl)c3)[nH]c(=O)c12 [Example 36, 2-(3,4-Dichlorobenzyl)-5-methyl-4-oxo-3,4-dihydrothieno-[2,3-d]pyrimidine-6-carboxylic acid] |  |  | 1.16 | 1.33 | 0.77 | 1.11 | 1.06 | 0.64 | 0.64 | Frequency of non-voiding contraction, pre-administration ([3]; 1 mg/kg i.v.): 0.96 count/min; Residual urine volume, pre-administration ([3]; 1 mg/kg i.v.): 0.82 mL; Frequency of non-voiding contraction, post-administration ([3]; 1 mg/kg i.v.): 0.79 count/min; Residual urine volume, post-administration ([3]; 1 mg/kg i.v.): 0.86 mL |
| Cc1c(C(=O)O)sc2nc(Cc3cccs3)[nH]c(=O)c12 [Example 2, 5-Methyl-4-oxo-2-(thiophen-2-ylmethyl)-3,4-dihydrothieno[2,3-d]pyrimidine-6-carboxylic acid] |  |  |  |  |  | 0.91 | 1.27 | 0.78 |  | Frequency of non-voiding contraction, pre-administration ([3]; 1 mg/kg i.v.): 0.91 count/min; Residual urine volume, pre-administration ([3]; 1 mg/kg i.v.): 1.27 mL; Frequency of non-voiding contraction, post-administration ([3]; 1 mg/kg i.v.): 0.47 count/min |
